According to patent publication US20220218667A1, “DUAL INHIBITORS OF SOLUBLE EPOXIDE HYDROLASE AND METHODS OF USE THEREOF” (OROX Biosciences, Inc., priority 2019, published 2022):
Several values for one entry are separate records, joined by “and”; a condition that tells them apart may be missing. Equal entries are not always repeated. Where two headings read alike, the source gives them in different places.

Columns and labels:
[1] = system: C57BL/6 mice, bleomycin-induced fibrotic lung injury; experiment: Example 2: therapeutic treatment in bleomycin-induced idiopathic pulmonary fibrosis mouse model; type: in vivo; details: OX1 60 mg/kg, Pirfenidone 100 mg/kg
Excerpt: The purpose of this study is to induce fibrotic lung injury in mice via a single administration of a glycopeptide antibiotic, bleomycin, in order to evaluate the efficacy of dual sEH and COX-2 inhibitor OX-1 in treating and reducing the symptoms associated with idiopathic pulmonary fibrosis. Pirfenidone, standard of care for the treatment of idiopathic pulmonary fibrosis, was used as a reference compound.
Male C57BL/6 mice from Charles River Laboratories aging of 7-8 weeks and weighing around 18-22 g at the time of their enrollment were used in the study.
Doses of OX1 at 60 mg/kg, Pirfenidone at 100 mg/kg, and the disease inducer Bleomycin at 1.5 mg/kg were used. A dosing rate of 10 mL/kg (approximately 0.2 mL/mouse according to their body weight) of OX1 was administered orally once daily to the mice. The mice received OX1 at 60 mg/kg once daily. A dosing rate of 10 mL/kg (approximately 0.2 mL/mouse according to their body weight) of Pirfenidone solution was administered once daily to the mice of the groups receiving Pirfenidone orally at the dose of 100 mg/kg once daily. A single intratracheal instillation of approximately 50 μL (1.5 mg/kg with a dosing rate of 2.5 mL/kg in sterile 0.9% saline) of bleomycin solution was administered to all mice except the sham group on day 0. Animals in the Sham group received one intratracheal instillation of approximately 50 μL of 0.9% saline solution on Day 0 and returned to their respective cages.
Treatment with the vehicle or test articles were initiated and administered starting on day 7 to day 21 as scheduled and described in Table 1 above. All test articles, reference compound and vehicle were administered to animals orally once daily. Food and water were given ad libitum. Daily observations of the behavioral and general health status of the animals were done. Daily body weight was also measured.
Prior to physiological assessment, all mice were introduced to the plethysmograph chamber environment. After the acclimatization period, the functional respiratory parameters were assessed by the whole-body plethysmograph on Day 0 (before bleomycin instillation), 7, 14 and 21 post-bleomycin instillation. Each measurement was performed with a mouse placed alone in an unrestrained whole-body plethysmography chamber (Buxco Electronics Inc.) to measure respiratory functions. The functional respiratory parameters analyzed included; the respiratory rate, the PenH ([…]) and the inspiratory/expiratory time measurements.
On the surgery day (Day 21), the mice were anesthetized, instrumented and arterial blood oxygen saturation (SpO2) was recorded. Blood oxygen saturation was read off of the pulse oximeter (STARR Life Sciences MouseOx Plus system, Oakmont, Pa.) with the probe attached to the right thigh of the animal. The saturation values were measured in percentage (%). At the moment of the sacrifice, the mouse thoracic cavity was open to expose the lungs and all mice were euthanatized by exsanguination. The trachea was then connected to the cannula of a perfusion system. The left lung was clamped while 1.5 mL of cold PBS solution (3×500 μL) was injected by the trachea to perform a bronchoalveolar lavage fluid (BALF) on the right lobe of the lungs and was collected on ice for further analysis. The total cells count with cells differential, the cytokine levels including TNF-α, TGF-β, IL-4, IL-5 and IL-17a, the total protein content as well as the soluble collagen were assessed in the BALF samples. Once collected, 300 μL of the BALF was transferred in an EDTA tube, kept at 2-4° C. and shipped to Biovet Inc. for the total cells count with cells differential analysis. The remaining BALF sample was centrifuged at 1200 rpm for 10 minutes at 4° C. to remove cells. The supernatant was aliquots and frozen at−80° C. until analysis was performed. […]

[2] = system: Human primary lung fibroblasts from IPF donors; experiment: Fibroblast-to-Myofibroblast Transition (FMT) assay; type: cell-based; details: for IC50: Homo sapiens, Primary lung fibroblast, 1.25 ng/ml TGF-b1
Procedure: OX1 was evaluated in a primary cell-based Fibroblast-to-Myofibroblast Transition (FMT) assay; an in vitro assay relevant to idiopathic pulmonary fibrosis (TPF). Human primary lung fibroblasts from three (3) IPF donors (IPF06, IPF07, and IPF08) were triggered using 1.25 ng/ml TGF-b1 to induce FMT, one hour after application of compounds. OX1 and Nintedanib (approved drug for TPF) were applied in […] in semi-log dilutions with the top concentration at […] to construct eight (8)-point concentration response curve (CRC) in biological duplicates (ie. on two (2) different cell plates at on (1) occasion). SB525334 was used at […] in 0.1% DMSO as a positive validation control. The readouts at 72 hours were high content analysis (HCA) for aSMA expression and DAPI staining for nuclear count as measurement of potential cytotoxic effects.

Compound: NS(=O)(=O)c1ccc(-n2nc(CCCNC(=O)Nc3ccc(C(F)(F)F)cc3)cc2-c2ccccc2)cc1 [OX1, 4-(5-phenyl-3-{3-[3-(4-trifluoromethyl-phenyl)-ureido]-propyl}-pyrazol-1-yl)-benzenesulfonamide]
- Eosinophils (cells) ([1]; BALF day 21, mean): 580 cells
- Macrophages (cells) ([1]; BALF day 21, mean): 204879 cells
- Soluble collagen ([1]; BALF day 21, mean): 60.4 µg and 60.38 µg
- Total BALF cytokines (pg) IL-4 ([1]; BALF day 21, mean): 0.09 pg
- Total BALF cytokines (pg) IL-5 ([1]; BALF day 21, mean): 2.49 pg
- Total BALF cytokines (pg) IL-6 ([1]; BALF day 21, mean): 9.50 pg
- Total TGFβ ([1]; BALF day 21, mean): 299.3 pg and 299.31 pg
- Percent Survival (%) ([1]; BLM mice, oral once daily day 7 to 21): 77.8%
- Body weight changes from day 7 (%) ([1]; mean, BLM mice, oral once daily day 7 to 21): 11.63%
- Loss of Nuclei [2]: Yes
- IC50 ([2]; donor IPF06, readout at 72 hours, read-out: αSMA inhibition IC50 (μM), Patient Identifier IPF06): 1 µM
- IC50 ([2]; donor IPF07, readout at 72 hours, read-out: αSMA inhibition IC50 (μM), Patient Identifier IPF07): 1.3 µM
- IC50 ([2]; donor IPF08, readout at 72 hours, read-out: αSMA inhibition IC50 (μM), Patient Identifier IPF08): 1 µM
- IC50 ([2]; mean of three IPF donors, 72 hours, read-out: αSMA inhibition IC50 (μM), Mean): 1.1 µM
